Data published in patent publication US7741342B2, “Water-soluble thalidomine derivatives” (priority 2003, dated 2010).
Read-outs that look alike come from different tables or passages of the source.

Assays:
[1] = aqueous solution stability; conditions: hydrochloride salt
[2] = buffer

Compound | aqueous solution stability t1/2 [1] | aqueous solution stability t1/2 [2]
CCN(CC)CC(=O)N[C@H](C(=O)OCN1C(=O)CCC(N2C(=O)c3ccccc3C2=O)C1=O)C(C)C.Cl (stereo partly drawn) [Example 1, (S)-2-(diethylaminoacetamido)-3-methyl butyric acid 2-(1-(hydroxymethyl)-2,6-dioxopiperidin-3-yl)isoindoline-1,3-dione ester hydrochloride] | > 8 h | –
CC(C)[C@H](NC(=O)CN(C)C)C(=O)OCN1C(=O)CCC(N2C(=O)c3ccccc3C2=O)C1=O.Cl (stereo partly drawn) [Example 2, (S)-2-(dimethylaminoacetamido)-3-methyl butyric acid 2-(1-(hydroxymethyl)-2,6-dioxopiperidin-3-yl)isoindoline-1,3-dione ester hydrochloride] | > 8 h | –
CC(C)[C@H](NC(=O)CN1CCCCC1)C(=O)OCN1C(=O)CCC(N2C(=O)c3ccccc3C2=O)C1=O.Cl (stereo partly drawn) [Example 3, (S)-2-(1-piperidinylacetamido)-3-methyl butyric acid 2-(1-(hydroxymethyl)-2,6-dioxopiperidin-3-yl)isoindoline-1,3-dione ester hydrochloride] | > 8 h | –
CCN(CC)CC(=O)OCN1C(=O)CCC(N2C(=O)c3ccccc3C2=O)C1=O.Cl (centres unmarked) [Example 4, Diethylaminoacetic acid 2-(1-(hydroxymethyl)-2,6-dioxopiperidin-3-yl)isoindoline-1,3-dione ester hydrochloride] | – | > 8 h
CN(C)CC(=O)OCN1C(=O)CCC(N2C(=O)c3ccccc3C2=O)C1=O.Cl (centres unmarked) [Example 5, Dimethylaminoacetic acid 2-(1-(hydroxymethyl)-2,6-dioxopiperidin-3-yl)isoindoline-1,3-dione ester hydrochloride salt] | – | > 4 h
